# Source: US11987588B2, “Modulators of the beta-3 adrenergic receptor useful for the treatment or prevention of heart failure and disorders related thereto” (Arena Pharmaceuticals, Inc., priority 2017, dated 2024)
# pIC50: −log10 of the molar value.
# Target: Beta-3 Adrenergic Receptor (Homo sapiens (Human), UniProt P13945)
# Experiment: Homogeneous Time-Resolved Fluorescence (HTRF) cAMP antagonist assay, IC50 determination
# Format: cell-based
# Conditions: CHO-K1 cells stably expressing recombinant receptor, isoproterenol at EC90
# Summary of the method: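 CHO-K1 cells stably expressing the recombinant receptor were preincubated with compound (10-point, 5-fold dilutions; top final typically 10 or 100 μM) in PBS with 1 mM IBMX, then stimulated with isoproterenol at its EC90 for 1 h at room temperature. cAMP was read by HTRF against an on-plate standard curve.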
# Chain of Beta-3 Adrenergic Receptor (P13945 whole entry, species assumed): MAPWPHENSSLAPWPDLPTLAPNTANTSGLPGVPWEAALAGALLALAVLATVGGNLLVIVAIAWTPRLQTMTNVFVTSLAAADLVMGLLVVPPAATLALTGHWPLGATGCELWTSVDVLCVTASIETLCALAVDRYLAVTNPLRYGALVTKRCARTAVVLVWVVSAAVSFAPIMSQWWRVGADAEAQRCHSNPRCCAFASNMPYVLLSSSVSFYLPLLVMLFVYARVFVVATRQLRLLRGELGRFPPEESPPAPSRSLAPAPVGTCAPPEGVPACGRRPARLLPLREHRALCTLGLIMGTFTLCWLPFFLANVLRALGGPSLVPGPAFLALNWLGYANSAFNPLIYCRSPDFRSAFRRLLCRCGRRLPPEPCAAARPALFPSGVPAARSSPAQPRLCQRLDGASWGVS
row,Structure (SMILES),pIC50
1,"CCC(C)(C)c1ccc(S(=O)(=O)N2CCC3(CC2)CC(NC[C@H](O)COc2cccc(S(=O)(=O)NC)c2)CO3)cc1 (stereo partly drawn) [Compound 120, 3-((2S)-2-hydroxy-3-(8-(4-tert-pentylphenylsulfonyl)-1-oxa-8-azaspiro[4.5]decan-3-ylamino)propoxy)-N-methylbenzenesulfonamide]",7.44
2,"CNS(=O)(=O)c1cccc(OC[C@@H](O)CNC2COC3(CCN(S(=O)(=O)c4ccc(-c5ccc(C(F)(F)F)cc5)cc4)CC3)C2)c1 (stereo partly drawn) [Compound 121, 3-((2S)-2-hydroxy-3-(8-(4′-(trifluoromethyl)biphenyl-4-ylsulfonyl)-1-oxa-8-azaspiro[4.5]decan-3-ylamino)propoxy)-N-methylbenzenesulfonamide]",7.17
3,"CNS(=O)(=O)c1cccc(OC[C@@H](O)CNC2COC3(CCN(S(=O)(=O)c4ccc(-c5ccc(F)cc5)cc4)CC3)C2)c1 (stereo partly drawn) [Compound 122, 3-((2S)-3-(8-(4′-fluorobiphenyl-4-ylsulfonyl)-1-oxa-8-azaspiro[4.5]decan-3-ylamino)-2-hydroxypropoxy)-N-methylbenzenesulfonamide]",7.47
4,"CNS(=O)(=O)c1cccc(OC[C@@H](O)CNC2COC3(CCN(S(=O)(=O)c4ccc(-c5ccccc5)cc4)CC3)C2)c1 (stereo partly drawn) [Compound 123, 3-((2S)-3-(8-(biphenyl-4-ylsulfonyl)-1-oxa-8-azaspiro[4.5]decan-3-ylamino)-2-hydroxypropoxy)-N-methylbenzenesulfonamide]",7.39
5,"CNS(=O)(=O)c1cccc(OC[C@@H](O)CNC2COC3(CCN(S(=O)(=O)c4cccc(Oc5ccccc5)c4)CC3)C2)c1 (stereo partly drawn) [Compound 124, 3-((2S)-2-hydroxy-3-(8-(3-phenoxyphenylsulfonyl)-1-oxa-8-azaspiro[4.5]decan-3-ylamino)propoxy)-N-methylbenzenesulfonamide]",7.44
6,"CNS(=O)(=O)c1cccc(OC[C@@H](O)CNC2COC3(CCN(S(=O)(=O)C4CCCCC4)CC3)C2)c1 (stereo partly drawn) [Compound 125, 3-((2S)-3-(8-(cyclohexylsulfonyl)-1-oxa-8-azaspiro[4.5]decan-3-ylamino)-2-hydroxypropoxy)-N-methylbenzenesulfonamide]",7.11
7,"CNS(=O)(=O)c1cccc(OC[C@@H](O)CNC2COC3(CCN(S(=O)(=O)c4ccc5c(c4)NC(=O)CO5)CC3)C2)c1 (stereo partly drawn) [Compound 126, 3-((2S)-2-hydroxy-3-(8-(3-oxo-3,4-dihydro-2H-benzo[b][1,4]oxazin-6-ylsulfonyl)-1-oxa-8-azaspiro[4.5]decan-3-ylamino)propoxy)-N-methylbenzenesulfonamide]",7.89
8,"CNS(=O)(=O)c1cccc(OC[C@@H](O)CNC2COC3(CCN(S(=O)(=O)c4ccc5c(c4)CCC(C)(C)O5)CC3)C2)c1 (stereo partly drawn) [Compound 127, 3-((2S)-3-(8-(2,2-dimethylchroman-6-ylsulfonyl)-1-oxa-8-azaspiro[4.5]decan-3-ylamino)-2-hydroxypropoxy)-N-methylbenzenesulfonamide]",7.83
9,"CNS(=O)(=O)c1cccc(OC[C@@H](O)CNC2COC3(CCN(S(=O)(=O)c4cccc5nsnc45)CC3)C2)c1 (stereo partly drawn) [Compound 128, 3-((2S)-3-(8-(benzo[c][1,2,5]thiadiazol-4-ylsulfonyl)-1-oxa-8-azaspiro[4.5]decan-3-ylamino)-2-hydroxypropoxy)-N-methylbenzenesulfonamide]",7.94
10,"CNS(=O)(=O)c1cccc(OC[C@@H](O)CNC2COC3(CCN(S(=O)(=O)c4c(Cl)nc5sccn45)CC3)C2)c1 (stereo partly drawn) [Compound 129, 3-((2S)-3-(8-(6-chloroimidazo[2,1-b]thiazol-5-ylsulfonyl)-1-oxa-8-azaspiro[4.5]decan-3-ylamino)-2-hydroxypropoxy)-N-methylbenzenesulfonamide]",7.60
11,"CNS(=O)(=O)c1cccc(OC[C@@H](O)CNC2COC3(CCN(S(=O)(=O)c4ccc(Oc5ccccc5)nc4)CC3)C2)c1 (stereo partly drawn) [Compound 130, 3-((2S)-2-hydroxy-3-(8-(6-phenoxypyridin-3-ylsulfonyl)-1-oxa-8-azaspiro[4.5]decan-3-ylamino)propoxy)-N-methylbenzenesulfonamide]",8.08
12,"CNS(=O)(=O)c1cccc(OC[C@@H](O)CNC2COC3(CCN(S(=O)(=O)c4cn[nH]c4)CC3)C2)c1 (stereo partly drawn) [Compound 131, 3-((2S)-3-(8-(1H-pyrazol-4-ylsulfonyl)-1-oxa-8-azaspiro[4.5]decan-3-ylamino)-2-hydroxypropoxy)-N-methylbenzenesulfonamide]",7.07
13,"CNS(=O)(=O)c1cccc(OC[C@@H](O)CNC2COC3(CCN(S(=O)(=O)c4cnn(-c5ccccc5)c4C)CC3)C2)c1 (stereo partly drawn) [Compound 132, 3-((2S)-2-hydroxy-3-(8-(5-methyl-1-phenyl-1H-pyrazol-4-ylsulfonyl)-1-oxa-8-azaspiro[4.5]decan-3-ylamino)propoxy)-N-methylbenzenesulfonamide]",7.97
14,"CNS(=O)(=O)c1cccc(OC[C@@H](O)CNC2COC3(CCN(S(=O)(=O)c4cc(C(F)(F)F)ccc4Cl)CC3)C2)c1 (stereo partly drawn) [Compound 133, 3-((2S)-3-(8-(2-chloro-5-(trifluoromethyl)phenylsulfonyl)-1-oxa-8-azaspiro[4.5]decan-3-ylamino)-2-hydroxypropoxy)-N-methylbenzenesulfonamide]",7.18
15,"CNS(=O)(=O)c1cccc(OC[C@@H](O)CNC2COC3(CCN(S(=O)(=O)c4ccc(F)cc4F)CC3)C2)c1 (stereo partly drawn) [Compound 134, 3-((2S)-3-(8-(2,4-difluorophenylsulfonyl)-1-oxa-8-azaspiro[4.5]decan-3-ylamino)-2-hydroxypropoxy)-N-methylbenzenesulfonamide]",7.42
16,"CNS(=O)(=O)c1cccc(OC[C@@H](O)CNC2COC3(CCN(S(=O)(=O)c4ccc(C)cc4OC)CC3)C2)c1 (stereo partly drawn) [Compound 135, 3-((2S)-2-hydroxy-3-(8-(2-methoxy-4-methylphenylsulfonyl)-1-oxa-8-azaspiro[4.5]decan-3-ylamino)propoxy)-N-methylbenzenesulfonamide]",7.48
17,"CCOc1ccc(S(=O)(=O)N2CCC3(CC2)CC(NC[C@H](O)COc2cccc(S(=O)(=O)NC)c2)CO3)cc1 (stereo partly drawn) [Compound 136, 3-((2S)-3-(8-(4-ethoxyphenylsulfonyl)-1-oxa-8-azaspiro[4.5]decan-3-ylamino)-2-hydroxypropoxy)-N-methylbenzenesulfonamide]",7.63
18,"CNS(=O)(=O)c1cccc(OC[C@@H](O)CNC2COC3(CCN(S(=O)(=O)c4ccc(OC(C)C)cc4)CC3)C2)c1 (stereo partly drawn) [Compound 137, 3-((2S)-2-hydroxy-3-(8-(4-isopropoxyphenylsulfonyl)-1-oxa-8-azaspiro[4.5]decan-3-ylamino)propoxy)-N-methylbenzenesulfonamide]",7.62
19,"CNS(=O)(=O)c1cccc(OC[C@@H](O)CNC2COC3(CCN(S(=O)(=O)c4cc(Cl)cc(Cl)c4)CC3)C2)c1 (stereo partly drawn) [Compound 138, 3-((2S)-3-(8-(3,5-dichlorophenylsulfonyl)-1-oxa-8-azaspiro[4.5]decan-3-ylamino)-2-hydroxypropoxy)-N-methylbenzenesulfonamide]",7.85
20,"CNS(=O)(=O)c1cccc(OC[C@@H](O)CNC2COC3(CCN(S(=O)(=O)c4cccc(Cl)c4F)CC3)C2)c1 (stereo partly drawn) [Compound 139, 3-((2S)-3-(8-(3-chloro-2-fluorophenylsulfonyl)-1-oxa-8-azaspiro[4.5]decan-3-ylamino)-2-hydroxypropoxy)-N-methylbenzenesulfonamide]",7.99
